Blank lines part the entries; values can stand above or below the molecule they belong to.
How the values were obtained:
[1] = Pharmacokinetics of oral 1-octanol and its metabolite octanoic acid in plasma of adults with Essential Tremor; type: in vivo, human
Method: Subjects: All subjects underwent a routine medical screening and neurological examination. A structured ethanol challenge was carried out to confirm tremors were ethanol-responsive. Subjects were videotaped at 0, 15, 30, 45, 60, and 75-minutes after receiving two servings (50-ml each) of 40% ethanol along with digitized spirography measures. Ethanol-responsive subjects then completed either a dose titration (1-64 mg/kg) inpatient study or a fixed dose (64 mg/kg) inpatient study to characterize the pharmacokinetics of 1-octanol and its predicted primary metabolite octanoic acid (OA). Plasma Sampling: During the inpatient study, subjects received oral 1-octanol followed by collection of plasma samples at the following intervals: 5, 20, 45, 70, 100, 130, 160, 210, 270 and 360-minutes post-dose. Samples were processed then batch analyzed using high-performance liquid chromatography and mass spectrometry methods to measure concentrations of 1-octanol and OA.

harmaline-induced tremor = assay: Harmaline mouse model of essential tremor (motion power percentage); type: in vivo; details: male ICR mice, harmaline 20 mg/kg s.c., octanoic acid i.p. in PEG-300
Source text: The harmaline model of essential tremor: Harmaline is a beta-carboline alkaloid that produces action tremor on systemic administration to mammals (see Llinas et al., Exp Brain Res 18:69 (1973)). […] Harmaline thus acts within the olivo-cerebellar system to produce tremor and can be used as a model to assess potential ET therapies (see Martin et al., Mov. Disord. 20:298 (2005)).
Animals: Male ICR mice (20-24 g) from Harlan (Indianapolis, Ind.) were housed in groups in standard cages with ad libitum access to commercial rodent diet and water.
Tremor measurement: Motion activity was measured with a Convuls-1 Replacement Sensing Platform model 1335-1A (Columbus Instruments, Columbus, Ohio), a metal platform with a load sensor beneath it, that is connected to a Grass model P511 AC amplifier (Grass Instruments, West Warwick, R.I.) with 1 and 70 Hz filter settings. Digitally recorded motion power was analyzed using Cambridge converter and software. Data was sampled at 128 Hz. The total motion power for each 20-minute epoch was calculated between 0 and 34 Hz (full motion spectrum) and between 10 and 16 Hz (the harmaline tremor frequency bandwidth); and the motion power percentage (10-16 Hz power)/(0-34 Hz power)×100 then calculated. This percentage is expressed as motion power percentage (MPP). […]

Essential Tremor [2] = assay: Tremor assessment by digitized Archimedes spirals after oral 1-octanol; type: in vivo, human
Method: Subjects: All subjects underwent a routine medical screening and neurological examination. A structured ethanol challenge was carried out to confirm tremors were ethanol-responsive. Subjects were videotaped at 0, 15, 30, 45, 60, and 75-minutes after receiving two servings (50-ml each) of 40% ethanol along with digitized spirography measures. Ethanol-responsive subjects then completed either a dose titration (1-64 mg/kg) inpatient study or a fixed dose (64 mg/kg) inpatient study to characterize the pharmacokinetics of 1-octanol and its predicted primary metabolite octanoic acid (OA). Tremor Assessment: To assess efficacy, subjects drew Archimedes spirals at fixed intervals on a digitizing tablet with an overlaid spiral guide. We used in-house analysis software to process the data before conducting a fast Fourier transform of tremor velocity to obtain our frequency and power measures.

Essential Tremor [3] = details: humans with Essential Tremor; Bushara 2004, Shill 2004; cited from earlier work
[4] = test system: hereditary essential tremor; details: patients with hereditary essential tremor; Brain 1994, 117: 805-824; cited from earlier work

OA plasma half-life ([1]; human, in vivo, po): approximately 74 minutes | earliest time at which OA plasma concentrations were detectable post-dose ([1]; human, in vivo, po): 5 min | persistence of OA plasma levels following administration ([1]; human, in vivo, po): up to 6 hours
Compound: CCCCCCCC(=O)O [octanoic acid]
suppression of harmaline-induced tremor (harmaline-induced tremor): suppressed harmaline-induced tremor in a dose dependent fashion

Compound: CCCCCCCCO [1-octanol]
1-octanol concentration as a function of oral dose ([1]; oral 1-octanol dose titration 1-64 mg/kg): remained at very low basal levels until the 64 mg/kg dose | peak tremor reduction from baseline (Essential Tremor [2]; at 120 minutes post-dose): 42% | persistence of tremor-reducing effect (Essential Tremor [2]; last timepoint 360 minutes): > 360 min | safety and tremor suppression in early human studies (Essential Tremor [3]): safe and effective at tremor suppression

Compound: CCO [ethanol]
proportion of patients in whom treatment was effective [4]: 50%
